Laboratory results published in publication PMC9000738, “Diterpenoid Alkaloids Isolated from Delphinium brunonianum and Their Inhibitory Effects on Hepatocytes Lipid Accumulation” (Molecules, 2022).
Where two headings read alike, the source gives them in different places.

Legend:
BRL cells = assay: Cell viability by CCK-8 assay in BRL cells; type: cell-based; conditions: Rattus norvegicus
Procedure: The cell viability (%) of the isolated diterpenoid alkaloids in the concentration range of 1–500 μM and the time-effectiveness of them for 24 h and 48 h were evaluated using CCK-8 assay (Figure 4). […] The IC50 values of 15 compounds and positive drug were calculated by SPSS 23.0 software. […] Therefore, through the entire experiments, the maximum concentration of tested diterpenoid alkaloids was limited to 10 μM, a concentration about one-tenth to one-fiftieth of IC50 of them. In addition, optimum dosage of modeling agent (FFA) was also selected as the concentration of 0.5 mM through CCK-8 assay (Figure S77).
Buffalo rat liver (BRL) cells were obtained from the Cell Bank, Committee for Typical Culture Preservation, Chinese Academy of Sciences. BRL cells were cultured in DMEM (containing 10% fetal bovine serum and 1% penicillin/streptomycin) under humidified 5% CO2 (v/v) atmosphere at 37 °C. To determine the cell viability of compounds 1–15, the CCK-8 assay was performed. The fifteen isolated compounds were dissolved in DMSO and diluted 1:1000 in culture medium, respectively. Cells were seeded in 96-well plates (6 × 10^3 cells per well) for 24 h incubation and then treatment with different concentrations (1, 10, 20, 50, 100, 200, and 500 µM) of each compound for 24 h or 48 h, respectively. CCK-8 solution (10% of the total solution) was added to each well, further incubated for 1 h at 37 °C. The absorbance was measured at 450 nm using a Multimode Microplate Reader.

FFA-induced BRL cells [1] = type: cell-based, rat; conditions: for TG level (TG secretion, lipid accumulation): 10 μM, 24 h, vs. model group; for TG level (TG secretion, lipid accumulation) / TC level / TG level / ALT level / AST level: 0.5 mM FFA-induced BRL cells; for TC level / TG level / ALT level / AST level: 1, 5 or 10 µM; for ALT level / AST level: medium; for inhibitory effects on hepatocytes lipid accumulation: FFA-induced BRL cells, 1, 5 and 10 µM
Procedure: We selected FFA-induced BRL cells (oleate and palmitate ratio was 2:1) to establish a cellular NAFLD model, which is a widely used method by researchers for studying diseases related to hepatocytes lipid accumulation. The TG secretion was measured to preliminarily evaluate the inhibitory effect on lipid accumulation of 15 isolated alkaloid compounds. […] Compounds 1–15 were tested at a concentration of 10 μM in FFA-induced BRL cells to determine their inhibitory effects on hepatocytes TG secretion (Figure 5). Atorvastatin calcium (ATC) is a statin cholesterol-lowering drug and widely used in the clinical treatment of hyperlipidemia and NAFLD, etc.. Therefore, we used atorvastatin calcium (ATC, 10 µM) as a positive control drug.
BRL cells were grown in 24-well plates until 70–80% confluence. Subsequently, 0.5 mM FFA (oleate and palmitate in a final ratio of 2:1) was applied for 24 h to establish an in vitro model of hepatocytes lipid accumulation in the model group, treated with 0.5 mM FFA combination with 1, 5, or 10 µM isolated compounds for 24 h in alkaloids groups. A portion of 1% bovine serum albumin (BSA) was added in BRL cells of the control group. Then, the medium of each group was collected for determination of ALT and AST levels by commercial kits. After removing the medium, 200 µL of 0.25% trypsin was added to digest the cells in 37 °C for 2 min. Then, 500 µL of DMEM that contained 10% fetal bovine serum (FBS) was added to stop digesting. Cells suspension was centrifuged at 800 r/min for 3 min. After adding 200 µL of ethanol, cells were collected and crushed by ultrasonic cell disruptor at 4 °C. Part of the cell fragmentation solution was used for the determination of cell protein content, the other part was used to determine TG and TC levels by commercial kits according to the manufacturer’s instruction.

FFA-induced BRL cells [2] = assay: Oil red O staining of lipid droplets and quantitative analysis in FFA-induced BRL cells; type: cell-based, rat; conditions: 10 µM, 0.5 mM FFA-induced BRL cells; for fold change of red-stained cell area (quantitative analysis of lipid accumulation): ImageJ, p < 0.001 vs. model group; for lipid accumulation by oil red O staining: vs. model group
Procedure: Combined with the oil red O staining and quantitative analysis assay, the effect of reducing lipid accumulation of compounds 4, 5, 7, 8, and 12 was performed in FFA-induced BRL cells. […] Quantitative analysis of lipid accumulation was also analyzed by ImageJ 1.8.0 software by calculating the area of red-stained cells (Figure 7C).
BRL cells were plated in 96-well plates until reaching 70–80% confluence and treated with 0.5 mM FFA mixture and the tested compounds for 24 h. Controls were incubated for the same period in complete medium.
After 24 h of incubation, the cells were fixed with 5% formalin solution for 30 min and then incubated with oil red O working solution for 15 min at room temperature. After that, the cells were washed once with 60% isopropanol and three times with water. The nuclei were stained with hematoxylin solution for 2 min at room temperature. Then, the operation of oil red O staining was referred to the previous research. Finally, the red oil droplets were observed using an optical microscope.

FFA-induced HepG2 cells [3] = assay: Oil red O staining in FFA-induced HepG2 cells; type: cell-based; conditions: 10 µM, 1 mM FFA-induced HepG2 cells
Procedure: Figure S79. Oil red O staining of lipid droplets and quantitative analysis in HepG2 cells treated with or without 1 mM FFA mixed compounds 4, 5, 7, 8, and 12 (10 µM), 400 ×; The images shown about quantitative analysis s of red stained cells are representatives of 3 replicates of each. The values are presented as mean ± SEM. ### p < 0.001, vs. the control group; * p < 0.05, ** p < 0.01, vs. the model group. […]

FFA-induced HepG2 cells [4] = assay: TG secretion assay in FFA-induced HepG2 cells; type: cell-based; conditions: 10 µM, 1 mM FFA-induced HepG2 cells
Procedure: Figure S78. Effects of compounds (4, 5, 7, 8, and 12) on TG level in FFA-induced HepG2 cells. HepG2 cells were treated with a mixture of 1 mM FFA in the absence o r presence of compounds (4, 5, 7, 8, and 12) at the concentration of 10 µM. The values are presented as mean ± SEM of six independent experiments. ### p < 0.001, vs. the control group; * p < 0.05, ** p < 0.01, vs. the model group. […]

[5] = BRL cells, CCK-8 assay, concentration range 1–500 μM, incubation time (24 h or 48 h) not stated, read-out: IC50

For `CCN1CC2(COC(=O)c3ccccc3NC(=O)CC(C)C(=O)O)CCC(OC)C34C5CC6C(OC)CC(O)(C5C6OC)C(O)(C(OC)C23)C14` (stereo not shown) [Compound 15, delavaine B], the IC50 (BRL cells) was over 500 µM and the “TG level (TG secretion, lipid accumulation)” value (FFA-induced BRL cells [1]) was “had the effect of inhibiting the lipid accumulation (TG secretion)”.
With `CCN1CC2(COC)CCC(OC)C34C5CC6C(OC)CC(O)(C5C6O)C(O)(C(OC)C23)C14` (stereo not shown) [Compound 13, browniine] the IC50 (BRL cells) was over 500 µM.
With `CCN1CC2(COC)CCC(O)C34C5CC6C(OC)CC7(OCOC7(C(O)C23)C14)C5C6OC` (stereo not shown) [Compound 10, uraphine] the IC50 (BRL cells) was over 500 µM.
In the case of `CC(C)c1c(C(=O)Nc2ccccc2)c(-c2ccccc2)c(-c2ccc(F)cc2)n1CC[C@@H](O)C[C@@H](O)CC(=O)O` [positive (ATC), Atorvastatin calcium, reference compound], the IC50 (BRL cells; [5]) is reported as 88.4 µM.
For `CCN1CC2(COC)CCC(O)C34C5CC6C(OC)CC7(OCOC7(C(OC)C23)C14)C5C6O` (stereo not shown) [Compound 8, delbrunine], the IC50 (BRL cells; [5]) was 408 µM, the “TG level (TG secretion, lipid accumulation)” value (FFA-induced BRL cells [1]) was “better than that of the positive control drug” and the TC level (FFA-induced BRL cells [1]) was “ameliorated”. For the same compound, the TG level (FFA-induced BRL cells [1]) was “ameliorated”, the ALT level (FFA-induced BRL cells [1]) was “ameliorated” and the AST level (FFA-induced BRL cells [1]) was “ameliorated”. The “inhibitory effects on hepatocytes lipid accumulation” value (from here on “inhibitory effects”) (FFA-induced BRL cells [1]) was “strong inhibitory effects on hepatocytes lipid accumulation in a dose-dependent manner”, the “fold change of red-stained cell area (quantitative analysis of lipid accumulation)” value (shortened to “fold change of red-stained cell area”) (FFA-induced BRL cells [2]) was “less than the model group” and the “lipid accumulation by oil red O staining” value (FFA-induced BRL cells [2]) was “significantly reduce lipid accumulation”. For the same compound, the “lipid accumulation by oil red O evaluation” value (FFA-induced HepG2 cells [3]) was “good inhibitory effects on lipid accumulation” and the “lipid accumulation by TG secretion assay” value (FFA-induced HepG2 cells [4]) was “good inhibitory effects on lipid accumulation”.
`CCN1CC2(COC)CCC(O)C34C5CC6C(OC)CC(O)(C5C6O)C(O)(C(OC)C23)C14` (stereo not shown) [Compound 9, delcosine] gave an IC50 (BRL cells) of over 500 µM.
`CCN1C[C@]2(CO)CC[C@H](OC)[C@@]34[C@@H]5C[C@H]6[C@H](OC)[C@@H]5[C@](O)(C[C@@H]6OC)[C@](O)([C@@H](OC)[C@H]23)[C@@H]14` [Compound 7, lycoctonine] was tested, and the IC50 (BRL cells; [5]) was over 500 µM, the “TG level (TG secretion, lipid accumulation)” value (FFA-induced BRL cells [1]) was “better than that of the positive control drug” and the TC level (FFA-induced BRL cells [1]) was “ameliorated”. For the same compound, the TG level (FFA-induced BRL cells [1]) was “ameliorated”, the ALT level (FFA-induced BRL cells [1]) was “ameliorated” and the AST level (FFA-induced BRL cells [1]) was “ameliorated”. For the same compound, the “inhibitory effects” value (FFA-induced BRL cells [1]) was “strong inhibitory effects on hepatocytes lipid accumulation in a dose-dependent manner”, the “fold change of red-stained cell area” value (FFA-induced BRL cells [2]) was “less than the model group” and the “lipid accumulation by oil red O staining” value (FFA-induced BRL cells [2]) was “significantly reduce lipid accumulation”. For the same compound, the “lipid accumulation by oil red O evaluation” value (FFA-induced HepG2 cells [3]) was “good inhibitory effects on lipid accumulation” and the “lipid accumulation by TG secretion assay” value (FFA-induced HepG2 cells [4]) was “good inhibitory effects on lipid accumulation”.
`CCN1C[C@]2(COC(=O)c3ccccc3N)CC[C@H](OC)[C@]34C1[C@](O)([C@@H](OC)[C@H]23)[C@@]1(O)C[C@H](OC)[C@H]2C[C@@H]4[C@@H]1[C@H]2OC` [Compound 11, anthranoyllycoctonine] showed an IC50 (BRL cells; [5]) of 300 to 500 µM.
In the case of `CCN1CC2(COC)CCC(OC)C34C5CC6C(OC)CC7(OCOC7(C(OC)C23)C14)C5C6O` (stereo not shown) [Compound 5, delbruline], the IC50 (BRL cells; [5]) is reported as over 500 µM, the “TG level (TG secretion, lipid accumulation)” value (FFA-induced BRL cells [1]) is reported as “better than that of the positive control drug” and the TC level (FFA-induced BRL cells [1]) is reported as “ameliorated”. For the same compound, the TG level (FFA-induced BRL cells [1]) was “ameliorated”, the ALT level (FFA-induced BRL cells [1]) was “ameliorated” and the AST level (FFA-induced BRL cells [1]) was “ameliorated”. For the same compound, the “inhibitory effects” value (FFA-induced BRL cells [1]) was “strong inhibitory effects on hepatocytes lipid accumulation in a dose-dependent manner”, the “fold change of red-stained cell area” value (FFA-induced BRL cells [2]) was “less than the model group” and the “lipid accumulation by oil red O staining” value (FFA-induced BRL cells [2]) was “significantly reduce lipid accumulation”. The “lipid accumulation by oil red O evaluation” value (FFA-induced HepG2 cells [3]) was “good inhibitory effects on lipid accumulation” and the “lipid accumulation by TG secretion assay” value (FFA-induced HepG2 cells [4]) was “good inhibitory effects on lipid accumulation”.
`CCN1CC2(COC(=O)c3ccccc3NC(=O)C(C)CC(=O)O)CCC(OC)C34C5CC6C(OC)CC(O)(C5C6OC)C(O)(C(OC)C23)C14` (stereo not shown) [Compound 14, shawurensine] was tested, and the IC50 (BRL cells) was over 500 µM and the “TG level (TG secretion, lipid accumulation)” value (FFA-induced BRL cells [1]) was “had the effect of inhibiting the lipid accumulation (TG secretion)”.
For `CCN1C[C@]2(C)CC[C@H](OC)[C@@]34C1[C@@]1(OCO[C@@]15C[C@H](OC)[C@H]1C[C@@H]3[C@@H]5[C@H]1O)[C@@H](O)[C@H]24` [Compound 6, delpheline], the IC50 (BRL cells) was over 500 µM.
